PubChem BioAssay (NCI)
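48-hour exposure; five concentrations; linearly interpolated endpoints. GI50 = concentration required for 50% inhibition of growth. TGI: concentration producing complete growth inhibition.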

Key:
Assay in all cases: NCI anticancer screen, dose series, 48 h
[1] = test system: SF-268 CNS
[2] = test system: A549 NSCLC
[3] = test system: BT-549 breast
[4] = test system: OVCAR-8 ovarian
[5] = test system: DU-145 prostate
[6] = test system: HS 578T breast
[7] = test system: SW-620 colon
[8] = test system: OVCAR-5 ovarian
[9] = test system: CCRF-CEM leukemia
[10] = test system: TK-10 renal
[11] = test system: KM12 colon
[12] = test system: NCI/ADR-RES ovarian
[13] = test system: COLO 205 colon
[14] = test system: M14 melanoma
[15] = test system: PC-3 prostate
[16] = test system: MALME-3M melanoma
[17] = test system: SF-295 CNS
[18] = test system: HCT-15 colon
[19] = test system: OVCAR-4 ovarian
[20] = test system: RXF 393 renal
[21] = test system: SNB-19 CNS
[22] = test system: 786-0 renal
[23] = test system: CAKI-1 renal
[24] = test system: UO-31 renal
[25] = test system: SNB-75 CNS
[26] = test system: HT29 colon
[27] = test system: A498 renal
[28] = test system: ACHN renal
[29] = test system: UACC-257 melanoma
[30] = test system: SK-MEL-5 melanoma
[31] = test system: U251 CNS
[32] = test system: HL-60(TB) leukemia
[33] = test system: IGROV1 ovarian
[34] = test system: MOLT-4 leukemia
[35] = test system: SF-539 CNS
[36] = test system: SK-MEL-28 melanoma
[37] = test system: HCT-116 colon
[38] = test system: LOX IMVI melanoma
[39] = test system: NCI-H23 lung
[40] = test system: SK-MEL-2 melanoma
[41] = test system: HCC-2998 colon
[42] = test system: SN12C renal
[43] = test system: UACC-62 melanoma
[44] = test system: NCI-H226 lung
[45] = test system: NCI-H522 lung
[46] = test system: T-47D breast
[47] = test system: SK-OV-3 ovarian
[48] = test system: NCI-H460 lung
[49] = test system: HOP-62 NSCLC
[50] = test system: SR leukemia
[51] = test system: K-562 leukemia
[52] = test system: MDA-MB-435
[53] = test system: MDA-MB-231 breast
[54] = test system: EKVX NSCLC
[55] = test system: HOP-92 NSCLC
[56] = test system: OVCAR-3 ovarian
[57] = test system: MCF7 breast
[58] = test system: RPMI-8226 leukemia

CC(C)Oc1ccc(-c2nn([C@@H](C)c3oc4ccc(F)cc4c(=O)c3-c3cccc(F)c3)c3ncnc(N)c23)cc1F
GI50 [1]: 19.1 µM | TGI [1]: > 100 µM | GI50 [2]: 7.7 µM | TGI [2]: > 100 µM | GI50 [3]: 6.99 µM | TGI [3]: > 100 µM | GI50 [4]: 11.8 µM | TGI [4]: > 100 µM | GI50 [5]: > 100 µM | TGI [5]: > 100 µM | GI50 [6]: 47.5 µM | TGI [6]: > 100 µM | GI50 [7]: > 100 µM | TGI [7]: > 100 µM | GI50 [8]: > 100 µM | TGI [8]: > 100 µM | GI50 [9]: 6.17 µM | TGI [9]: > 100 µM | GI50 [10]: 7.29 µM | TGI [10]: > 100 µM | GI50 [11]: 25.8 µM | TGI [11]: > 100 µM | GI50 [12]: 20.7 µM | TGI [12]: > 100 µM | GI50 [13]: 67.3 µM | TGI [13]: > 100 µM | GI50 [14]: > 100 µM | TGI [14]: > 100 µM | GI50 [15]: 4.68 µM | TGI [15]: > 100 µM | GI50 [16]: > 100 µM | TGI [16]: > 100 µM | GI50 [17]: > 100 µM | TGI [17]: > 100 µM | GI50 [18]: 9.33 µM | TGI [18]: > 100 µM | GI50 [19]: > 100 µM | TGI [19]: > 100 µM | GI50 [20]: 4.36 µM | TGI [20]: > 100 µM | GI50 [21]: 32.5 µM | TGI [21]: > 100 µM | GI50 [22]: 12.8 µM | TGI [22]: > 100 µM | GI50 [23]: 5.6 µM | TGI [23]: > 100 µM | GI50 [24]: 3.81 µM | TGI [24]: > 100 µM | GI50 [25]: > 100 µM | TGI [25]: > 100 µM | GI50 [26]: 21.8 µM | TGI [26]: > 100 µM | GI50 [27]: 76.1 µM | TGI [27]: > 100 µM | GI50 [28]: 50.1 µM | TGI [28]: > 100 µM | GI50 [29]: > 100 µM | TGI [29]: > 100 µM | GI50 [30]: 48.9 µM | TGI [30]: > 100 µM | GI50 [31]: 23.9 µM | TGI [31]: > 100 µM | GI50 [32]: 30.4 µM | TGI [32]: > 100 µM | GI50 [33]: > 100 µM | TGI [33]: > 100 µM | GI50 [34]: 9.28 µM | TGI [34]: > 100 µM | GI50 [35]: 15.2 µM | TGI [35]: > 100 µM | GI50 [36]: > 100 µM | TGI [36]: > 100 µM | GI50 [37]: 8.96 µM | TGI [37]: > 100 µM | GI50 [38]: > 100 µM | TGI [38]: > 100 µM | GI50 [39]: 60.9 µM | TGI [39]: > 100 µM | GI50 [40]: > 100 µM | TGI [40]: > 100 µM | GI50 [41]: > 100 µM | TGI [41]: > 100 µM | GI50 [42]: 9.89 µM | TGI [42]: > 100 µM | GI50 [43]: > 100 µM | TGI [43]: > 100 µM | GI50 [44]: 26.9 µM | TGI [44]: > 100 µM | GI50 [45]: > 100 µM | TGI [45]: > 100 µM | GI50 [46]: 5.42 µM | TGI [46]: > 100 µM | GI50 [47]: > 100 µM | TGI [47]: > 100 µM | GI50 [48]: 17.6 µM | TGI [48]: > 100 µM | GI50 [49]: > 100 µM | TGI [49]: > 100 µM | GI50 [50]: 4.93 µM | TGI [50]: > 100 µM | GI50 [51]: 5.68 µM | TGI [51]: > 100 µM | GI50 [52]: > 100 µM | TGI [52]: > 100 µM | GI50 [53]: 22.9 µM | TGI [53]: > 100 µM | GI50 [54]: 8.61 µM | TGI [54]: > 100 µM | GI50 [55]: 4.71 µM | TGI [55]: > 100 µM | GI50 [56]: 30.2 µM | TGI [56]: > 100 µM | GI50 [57]: 6.79 µM | TGI [57]: > 100 µM | GI50 [58]: 6.7 µM | TGI [58]: > 100 µM

CCN(CC)CC(O)CNc1c2ccc(Cl)cc2nc2ccc(OC)cc12 (configuration not stated)
GI50 [1]: 0.89 µM | TGI [1]: 2.97 µM | GI50 [2]: 0.472 µM | TGI [2]: 2.03 µM | GI50 [3]: 1.63 µM | TGI [3]: 3.05 µM | GI50 [4]: 0.521 µM | TGI [4]: 2.25 µM | GI50 [5]: 0.71 µM | TGI [5]: 2.21 µM | GI50 [6]: 1.24 µM | TGI [6]: 3.47 µM | GI50 [7]: 0.393 µM | TGI [7]: 1.65 µM | GI50 [8]: 1.66 µM | TGI [8]: 5.18 µM | GI50 [9]: 0.673 µM | TGI [9]: 6.88 µM | GI50 [10]: 0.837 µM | TGI [10]: 3.18 µM | GI50 [11]: 0.512 µM | TGI [11]: 1.86 µM | GI50 [12]: 0.933 µM | TGI [12]: 3.31 µM | GI50 [13]: 0.528 µM | TGI [13]: 1.68 µM | GI50 [14]: 1.35 µM | TGI [14]: 2.66 µM | GI50 [15]: 0.355 µM | TGI [15]: 1.62 µM | GI50 [16]: 1.63 µM | TGI [16]: 3.35 µM | GI50 [17]: 0.649 µM | TGI [17]: 2.11 µM | GI50 [18]: 0.679 µM | TGI [18]: 6.43 µM | GI50 [19]: 0.704 µM | TGI [19]: 2.25 µM | GI50 [20]: 0.657 µM | TGI [20]: 1.84 µM | GI50 [21]: 0.632 µM | TGI [21]: 2.7 µM | GI50 [22]: 0.549 µM | TGI [22]: 2.05 µM | GI50 [23]: 0.656 µM | TGI [23]: 2.33 µM | GI50 [24]: 0.929 µM | TGI [24]: 3.41 µM | GI50 [25]: 0.97 µM | TGI [25]: 2.38 µM | GI50 [26]: 0.356 µM | TGI [26]: 1.48 µM | GI50 [27]: 1.43 µM | TGI [27]: 2.89 µM | GI50 [28]: 0.935 µM | TGI [28]: 3.79 µM | GI50 [29]: 1.75 µM | TGI [29]: 3.27 µM | GI50 [30]: 1.58 µM | TGI [30]: 2.92 µM | GI50 [31]: 0.574 µM | TGI [31]: 2.32 µM | GI50 [32]: 0.96 µM | TGI [32]: 3.32 µM | GI50 [33]: 0.716 µM | TGI [33]: 3.12 µM | GI50 [34]: 0.369 µM | TGI [34]: 1.58 µM | GI50 [35]: 1.43 µM | TGI [35]: 3.05 µM | GI50 [36]: 1.72 µM | TGI [36]: 3.1 µM | GI50 [37]: 0.367 µM | TGI [37]: 1.41 µM | GI50 [38]: 0.589 µM | TGI [38]: 1.79 µM | GI50 [39]: 0.852 µM | TGI [39]: 2.53 µM | GI50 [40]: 1.27 µM | TGI [40]: 2.85 µM | GI50 [41]: 0.549 µM | TGI [41]: 1.77 µM | GI50 [42]: 0.54 µM | TGI [42]: 2.68 µM | GI50 [43]: 1.78 µM | TGI [43]: 3.31 µM | GI50 [44]: 0.886 µM | TGI [44]: 3.01 µM | GI50 [45]: 0.518 µM | TGI [45]: 1.84 µM | GI50 [46]: 1.18 µM | TGI [46]: 2.93 µM | GI50 [47]: 1.02 µM | TGI [47]: 3.64 µM | GI50 [48]: 0.327 µM | TGI [48]: 0.975 µM | GI50 [49]: 1.01 µM | TGI [49]: 2.73 µM | GI50 [50]: 0.338 µM | TGI [50]: 1.07 µM | GI50 [51]: 0.312 µM | TGI [51]: 0.979 µM | GI50 [52]: 0.923 µM | TGI [52]: 2.25 µM | GI50 [53]: 0.972 µM | TGI [53]: 3.06 µM | GI50 [54]: 0.407 µM | TGI [54]: 2.08 µM | GI50 [55]: 1.3 µM | TGI [55]: 3.84 µM | GI50 [56]: 1.71 µM | TGI [56]: 4.26 µM | GI50 [57]: 0.621 µM | TGI [57]: 4.4 µM | GI50 [58]: 0.51 µM | TGI [58]: 1.87 µM
